Results as given in patent US8871929B2, “Fused-imidazoyl compounds useful as antimicrobial agents” (Merck Sharp & Dohme Corp., priority 2010, dated 2014).
≈ marks a conversion by molar mass, not a printed value.

Test system: Staphylococcus aureus ATCC29213
Assay: Susceptibility testing (MIC determination), broth microdilution
Type: cell-based
Conditions: Mueller Hinton broth, 96-well plate, overnight incubation at 35° C., read-out: MIC Staph. aureus ATCC-29213
Description: Compounds useful in the method of the invention were investigated for their utility as antimicrobial agents in the following assay. Susceptibility testing (MIC determinations) was performed using the standard broth microdilution methodology precisely as described in the Clinical Laboratory Standards Institute Document M7-A6; Methods for Dilution Antimicrobial Susceptibility Tests for Bacteria That Grow Aerobically; […] To perform the test, a series of 0.1 ml media in a 96-well plate is prepared with Mueller Hinton broth to which various concentrations of the test compound are added. The media are then inoculated with a standardized suspension of the test organism, Staphylococcus aureus ATCC29213. After overnight incubation at 35° C., the tests are examined and the minimal inhibitory concentration (MIC) is determined. MIC is defined as the lowest concentration of an antimicrobial agent that prevents visible growth of a microorganism in the broth microdilution susceptibility test

Compound: COC(=O)c1ccn2c(NCC(=O)N3CCN(c4c(Cl)cncc4Cl)CC3)c(-c3ccc(N4CCOCC4)cc3)nc2c1 [Compound 84]
- MIC: 0.125 µg/mL (≈ 0.2 µM)
